According to PMC10056986 (Pharmaceuticals, 2023):

Tests used:
A/PR/8/34 (H1N1) = tested on: A/PR/8/34 (H1N1); parameters: species or system BALB/c mice; details: mouse, in vivo
HBV = assay: microbe, parasite or virus in culture; format: cell-based; details: Hepatitis B virus, HepG2.2.15, read-out: EC50 for Virus
V1a = V1a (Homo sapiens, UniProt P37288); assay: cell-based
22 GPCR targets = format: cell-based, human; details: read-out: IC50 (antagonist screening)
D1 = D1 (Homo sapiens, UniProt P21728); assay: cell-based
D1, sequence (P21728 whole entry): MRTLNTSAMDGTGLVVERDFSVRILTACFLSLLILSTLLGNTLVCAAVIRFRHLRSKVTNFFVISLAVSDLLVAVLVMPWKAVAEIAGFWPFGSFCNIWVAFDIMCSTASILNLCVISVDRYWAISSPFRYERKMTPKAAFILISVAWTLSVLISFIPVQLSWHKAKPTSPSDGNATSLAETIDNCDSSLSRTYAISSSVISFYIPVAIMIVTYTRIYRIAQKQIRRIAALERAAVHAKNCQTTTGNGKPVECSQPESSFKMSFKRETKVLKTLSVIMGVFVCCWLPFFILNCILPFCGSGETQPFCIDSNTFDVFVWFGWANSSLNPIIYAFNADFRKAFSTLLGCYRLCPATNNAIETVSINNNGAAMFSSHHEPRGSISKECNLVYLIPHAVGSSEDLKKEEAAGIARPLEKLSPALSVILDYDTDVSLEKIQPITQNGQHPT

in vitro = details: human
CB1 = CB1 (Homo sapiens, UniProt P21554); assay: cell-based
CB1, sequence (P21554 whole entry): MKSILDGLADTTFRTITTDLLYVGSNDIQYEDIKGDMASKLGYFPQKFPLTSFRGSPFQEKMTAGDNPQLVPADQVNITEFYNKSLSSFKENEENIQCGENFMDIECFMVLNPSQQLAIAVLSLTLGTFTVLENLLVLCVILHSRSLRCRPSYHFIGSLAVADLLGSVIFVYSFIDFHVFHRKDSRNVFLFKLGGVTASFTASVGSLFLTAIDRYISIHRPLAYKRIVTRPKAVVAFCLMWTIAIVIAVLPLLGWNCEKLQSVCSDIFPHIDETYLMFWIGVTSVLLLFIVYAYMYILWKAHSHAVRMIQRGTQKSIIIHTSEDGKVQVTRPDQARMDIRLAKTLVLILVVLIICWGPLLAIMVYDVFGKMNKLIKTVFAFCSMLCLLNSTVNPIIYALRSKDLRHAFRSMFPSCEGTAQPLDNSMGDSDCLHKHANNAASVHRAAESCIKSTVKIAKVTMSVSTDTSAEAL

MAPKAPK2 = MAPKAPK2 (Homo sapiens, UniProt P49137); assay: biochemical
MAPKAPK2, sequence (P49137 whole entry): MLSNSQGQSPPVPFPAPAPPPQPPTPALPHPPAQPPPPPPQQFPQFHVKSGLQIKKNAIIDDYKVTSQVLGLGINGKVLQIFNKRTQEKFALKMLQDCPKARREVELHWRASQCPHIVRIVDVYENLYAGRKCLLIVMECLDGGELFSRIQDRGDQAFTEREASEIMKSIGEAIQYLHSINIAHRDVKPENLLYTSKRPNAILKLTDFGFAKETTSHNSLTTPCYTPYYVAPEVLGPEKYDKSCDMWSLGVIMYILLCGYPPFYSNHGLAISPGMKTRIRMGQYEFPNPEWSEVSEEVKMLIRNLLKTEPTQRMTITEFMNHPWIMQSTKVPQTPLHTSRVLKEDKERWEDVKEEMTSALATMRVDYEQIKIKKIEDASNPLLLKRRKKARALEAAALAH

V1a, sequence (P37288 whole entry): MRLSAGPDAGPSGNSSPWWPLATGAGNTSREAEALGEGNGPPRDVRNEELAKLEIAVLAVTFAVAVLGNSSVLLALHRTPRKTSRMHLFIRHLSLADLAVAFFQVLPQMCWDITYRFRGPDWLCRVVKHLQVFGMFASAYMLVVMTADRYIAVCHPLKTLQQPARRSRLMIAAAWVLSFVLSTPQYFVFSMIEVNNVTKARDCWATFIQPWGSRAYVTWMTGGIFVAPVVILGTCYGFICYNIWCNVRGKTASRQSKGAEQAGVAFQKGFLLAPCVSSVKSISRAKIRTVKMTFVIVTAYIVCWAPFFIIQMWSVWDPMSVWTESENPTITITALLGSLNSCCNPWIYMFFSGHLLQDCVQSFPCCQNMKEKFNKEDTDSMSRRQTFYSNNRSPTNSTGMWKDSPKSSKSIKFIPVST

O=C(O)[C@H]1C2CCC(CC2)[C@@H]1Nc1nc(-c2n[nH]c3ncc(F)cc23)nc(C2CC2)c1F [ZSP1273]
lung index (A/PR/8/34 (H1N1)): significantly decreased
viral titers in the lung tissues (A/PR/8/34 (H1N1)): 0
EC50 (HBV): > 10 µM
EC50 (V1a): > 12 µM
Activity at Maximum Concentration (%) (V1a; 12,000 nM): 6.27%
IC50 (22 GPCR targets): > 10 µM
EC50 (D1): > 12 µM
Activity at Maximum Concentration (%) (D1; 12,000 nM): −2.15%
CC50 (in vitro): > 10 µM
IC50 (CB1): > 10 µM
inhibition at 10 µM (CB1; 10,000 nM, read-out: Inhibition at Maximum Concentration (%)): -77.2%
IC50 (MAPKAPK2): > 10 µM
